# Data from PMC7053198 (Theranostics, 2020).
# Tests used:
# [1] = system: Panc0403/PS1 xenografts; assay type: in vivo, mouse; details: n=4
# [2] = system: Colo357 cells
# [3] = system: A375Pβ6 xenografts; details: mouse, in vivo, ip
# [4] = system: Capan-1 PDAC xenografts; details: mouse, in vivo, ip
# [5] = system: A375Pβ6 cells
# [6] = system: A375Ppuro xenografts; assay type: in vivo, mouse; details: after 21 days
# [7] = system: A375Ppuro cells
# [8] = system: Capan-1 cells
# [9] = system: Panc0403/PS1 tumor xenografts; assay type: in vivo, mouse; details: n=4
# [10] = system: Capan-1 tumor xenografts; assay type: in vivo, mouse; details: n=3
# [11] = system: A375Ppuro cells; assay type: cell-based, human; details: 30 min at 4°C
# [12] = system: Panc1 cell line; assay type: cell-based; details: after 30 min
# [13] = mouse, in vivo, ip
# [14] = system: αvβ6-positive versus αvβ6-negative cell lines; assay type: cell-based
# [15] = in vivo; details: female, CD1 Nu/Nu, mouse, ip, 20 ug/kg
# [16] = system: Capan-1 cells; assay type: cell-based, human
# [17] = in vivo, ip
# [18] = system: PANC354, PANC253 and PANC215 PDX PDAC cells; assay type: cell-based, human
# [19] = system: Panc1 cells
# [20] = system: Panc0403 cells
# [21] = system: A375Pβ6 cells; assay type: cell-based, human; details: 30 min at 4°C
compound,measurement,setting,value
COc1cc2c(cc1OCCCCCOc1cc3c(cc1OC)C(=O)N1C=C(C)C[C@H]1[C@H](O)N3C(=O)OCc1ccc(NC(=O)[C@H](C)NC(=O)[C@@H](NC(=O)CCOCCOCCOCCOCCOCCOCCOCCOCCNC(=O)CCN3C(=O)CC(SC[C@H](NC(=O)[C@@H](NC(=O)[C@H](CCCNC(=N)N)NC(=O)[C@H](C)NC(=O)[C@@H](NC(=O)[C@H](CCCCN)NC(=O)[C@H](CCC(N)=O)NC(=O)[C@H](C)NC(=O)[C@H](CC(C)C)NC(=O)[C@@H](NC(=O)[C@H](CCC(N)=O)NC(=O)[C@H](CC(C)C)NC(=O)[C@H](CC(=O)O)NC(=O)CNC(=O)[C@H](CCCNC(=N)N)NC(=O)[C@H](CC(C)C)NC(=O)[C@H](CC(N)=O)NC(=O)[C@@H]4CCCN4C(=O)[C@@H](NC(=O)[C@H](C)NC(=O)[C@H](CC(N)=O)NC(=O)CCCC[C@@H]4SC[C@@H]5NC(=O)N[C@@H]54)C(C)C)C(C)C)C(C)C)[C@@H](C)O)C(=O)O)C3=O)C(C)C)cc1)N=C[C@@H]1CC(C)=CN1C2=O (stereo partly drawn) [SG3299],reduction of xenograft tumor growth compared with PBS treatment,[1],75.8±6%
same,reduction of xenograft tumor growth compared with SG3511 therapy,[1],60.4±9.8%
same,PDC αvβ6 Specificity Ratio,[2],10.97
same,IC50,[2]; 72 h,2.24 ± 1.59 nM
same,reduced growth more than SG3511,[3],2.3 fold
same,reduction of tumor growth compared with PBS treatment,[3],79±7%
same,effect on tumor growth,[4],significant growth inhibition
same,mice with tumors eliminated,[4],4 out of 5
same,reduction of tumor growth compared to PBS,[4],97.7±2%
same,reduction of tumor growth compared to SG3511,[4],96.1±3.4%
same,PDC αvβ6 Specificity Ratio,[5],15.02
same,more potent in A375Pβ6 cells than SG3511,[5],over 15 fold
same,more selective for A375Pβ6 cells than A375Ppuro cells,[5],5.7 fold
same,IC50,[5]; 72 h,5.37 ± 5.23 nM
same,reduction in tumor size compared with vehicle (PBS),[6],34.8±4.6%
same,PDC αvβ6 Specificity Ratio,[7],3.30
same,IC50,[7]; 72 h,30.6 ± 18.8 nM
same,PDC αvβ6 Specificity Ratio,[8],2.80
same,IC50,[8]; 72 h,4.19 ± 3.76 nM
same,increase in DNA damage (γH2AX) compared with PBS,[9],5.5 fold
same,increase in DNA damage (γH2AX) compared with SG3511,[9],2.9 fold
same,reduction of epithelial cell number (CK) compared with PBS,[9],44.2±18.1%
same,reduction of epithelial cell number (CK) compared with SG3511,[9],41.2±19.1%
same,reduction of epithelial cell number (E-cadherin) compared with PBS,[9],46±11%
same,reduction of epithelial cell number (E-cadherin) compared with SG3511,[9],32.1±34.6%
same,reduction of proliferation (Ki67) compared with PBS,[9],60±13.1%
same,reduction of proliferation (Ki67) compared with SG3511,[9],54.8±13.8%
same,reduction of β6 expression compared to PBS,[9],73.4±11%
same,reduction of β6 expression compared to SG3511,[9],61.1±16.1%
same,increase in DNA damage (γH2AX) compared with PBS,[10],5.9 fold
same,increase in apoptosis (cleaved-caspase 3) from PBS,[10],5.8 fold
same,increased vimentin compared with PBS,[10],4.6 fold
same,increased α-sma expression from PBS,[10],1.9 fold
same,reduction in CK-positive epithelial cells compared with PBS,[10],79.2±11.2%
same,reduction in E-cadherin-positive epithelial cells compared with PBS,[10],85±8%
same,reduction in proliferation (Ki67 staining) compared with SG3511,[10],66.2±15.7%
same,reduction in proliferation (Ki67 staining) compared with control,[10],67.5±15%
same,binding to A375Ppuro cells (MFI),[11],failed to bind
same,levels of internalised conjugate in αvβ6-negative Panc1,[12],no significant difference in the levels of internalised SG3299 or SG3511
same,detection in urine,[13],No SG3299 was detected in the urine
same,higher toxicity at equal dose than the non-targeted PDC SG3511,[14],up to 15 fold
same,more toxic for αvβ6-expressing versus αvβ6-negative PDAC cell lines,[14],up to 78 fold
same,level at time molar at 2 min,[15],11 ± 4.3 nM
same,level at time molar at 5 min,[15],9.5 ± 4.3 nM
same,level at time molar at 0.25 h,[15],19.2 ± 4.9 nM
same,level at time molar at 1 h,[15],27.9 ± 4.2 nM
same,binding and internalisation in Capan-1 cells,[16],strong binding and entry into the cytoplasm
same,"adverse effects (mouse weight, behaviour, gross histology of lung, intestine and stomach)",[17],no gross adverse effects
same,reduction of the number of spheres formed compared with control-treated spheres,[18],72±27%
same,PDC αvβ6 Specificity Ratio,[19],0.33
same,IC50,[19]; 72 h,176 ± 116 nM
same,PDC αvβ6 Specificity Ratio,[20],13.22
same,IC50,[20]; 72 h,3.44 ± 3.29 nM
same,binding to A375Pβ6 cells (MFI),[21],dose-dependent binding
